# Measurements reported in US7354754B2, “Microorganism sensitive to lysozyme” (National Institute of Advanced Industrial Science and …, priority 2002, dated 2008).
# Assays:
# Type in all cases: cell-based
# [1] = tested on: Rhodococcus erythropolis strain L-88; assay: Cell lysis with lysozyme for extraction of recombinant PIP protein, strain L-88; details: lysozyme 1 mg/ml, 37° C., one hour, nondenaturation buffer
# [2] = tested on: Rhodococcus erythropolis strain L-88; assay: Turbidity change of culture solution by addition of lysozyme, strain L-88; details: lysozyme 12.5 μg/ml added at OD600 about 0.2, LB medium, 30° C.
# Description: (§1) To 100 ml of LB medium, Rhodococcus erythropolis strain L-65 was inoculated and cultured with shaking at 30° C. The absorbence (OD600) of the culture solution was measured at an absorption wavelength of 600 nm every hour from the beginning of the logarithmic growth period. When OD600 reached about 0.2, the volume of the culture solution was divided into halves. To one of them, lysozyme was added to a final concentration of 12.5 μg/ml. No lysozyme was added to the other. While both solutions were further cultured continuously, the absorbence was measured. The growth profiles of Rhodococcus erythropolis strain L-65 culture solutions with Lysozyme (12.5 μg/ml) and without lysozyme were shown by absorbence at 600 nm. When OD600 reached about 0.2, lysozyme was added (Indicated by the arrow in the figure). […] This is considered because bacterial cell lysis was caused by lysozyme.
# The same operation as in Example 2 was performed by use of Rhodococcus erythropolis strain L-88. The growth profiles of culture solutions of Rhodococcus erythropolis strain L-88 with lysozyme (12.5 μg/ml) and without lysozyme were shown by absorbence at 600 nm. When OD600 reached about 0.2, lysozyme was added (Indicated by the arrow in the figure). […] This is considered because bacterial cell lysis was caused by lysozyme.
# [3] = tested on: Rhodococcus erythropolis strain JCM 3201; assay: Cell lysis with lysozyme for extraction of recombinant PIP protein, strain JCM 3201; details: lysozyme 1 mg/ml, 37° C., one hour
# [4] = tested on: Rhodococcus erythropolis strain JCM 3201; assay: Minimum growth inhibition concentration on LB agar medium, strain JCM 3201; details: strain JCM 3201 (wild type), 30° C., 2 days
# Description: (§2) A microorganism of the genus Rhodococcus according to the present invention is a mutant microorganism of the genus Rhodococcus, which has a higher sensitivity to lysozyme than a wild-type microorganism of the genus Rhodococcus. The microorganism of the genus Rhodococcus is not limited to a specific species and includes Rhodococcus erythropolis, Rhodococcus fascians, and Rhodococcus opacus. The wild-type microorganism of the genus Rhodococcus refers to a microorganism belonging to the genus Rhodococcus and having no genetic mutation, for example, Rhodococcus erythropolis strain JCM 3201. More specifically, the microorganism of the genus Rhodococcus according to the present invention having a higher sensitivity to lysozyme is a mutant derived from a wild-type microorganism of the genus Rhodococcus as a parent strain, and having an increased sensitivity to lysozyme compared to the parent strain. The phrase “having an increased sensitivity to lysozyme” means that cell lysis may occur at a low lysozyme concentration. […] Alternatively, the degree of sensitivity to lysozyme can be determined by adding lysozyme to a predetermined concentration of a microorganism of the genus Rhodococcus, and monitoring a change in absorbence while culturing. […]
# [5] = tested on: Rhodococcus erythropolis strain L-88; assay: Minimum growth inhibition concentration on LB agar medium, strain L-88; details: 30° C., 2 days
# Description: as §2
# [6] = tested on: Rhodococcus erythropolis strain JCM 3201; assay: Turbidity change of culture solution by addition of lysozyme, strain JCM 3201; details: lysozyme 12.5 μg/ml added at OD600 about 0.2, LB medium, 30° C.
# Description: as §1
# The same operation as in Example 2 was performed by use of Rhodococcus erythropolis strain JCM 3201. The growth profiles of culture solutions of Rhodococcus erythropolis strain JCM 3201 with lysozyme (12.5 μg/ml) and without lysozyme were shown by absorbence at 600 nm. When OD600 reached about 0.2, lysozyme was added (Indicated by the arrow in the figure).
# [7] = tested on: Rhodococcus erythropolis strain L-65; assay: Turbidity change of culture solution by addition of lysozyme, strain L-65; details: lysozyme 12.5 μg/ml added at OD600 about 0.2, LB medium, 30° C.
# Description: as §1
# [8] = tested on: Rhodococcus erythropolis strain L-65; assay: Cell lysis with lysozyme for extraction of recombinant PIP protein, strain L-65; details: lysozyme 1 mg/ml, 37° C., one hour, nondenaturation buffer
# Description: A plasmid (pHN170, Nakashima and Tamura: the full length sequence is represented by SEQ ID No: 2) was constructed such that it could self-replicate in a bacterial cell of Rhodococcus erythropolis and could be induced by thiostreptone to express a proline iminopeptidase (hereinafter referred to as “PIP”) protein (T. Tamura et al., FEBS Lett. 398, 101-105 (1996)) having a 6× histidine tag at the C terminal. This plasmid was introduced into Rhodococcus erythropolis strain L-65 by an electroporation method. Transformants were screened on LB agar medium containing tetracycline (20 μg/ml). The transformants were inoculated on 4 ml of LB medium containing tetracycline (8 μg/ml) and cultured with shaking at 30° C. until the absorbence at an absorption wavelength of 600 nm reached 0.8. The entire culture solution was added to 40 ml of LB medium containing thiostreptone (1 μg/ml) and cultured with rotation in a vaned flask for 16 hours. After PIP protein was induced to express, bacterial cells were centrifugally collected at 1,500×g for 15 minutes. […] As a result, a clear band was detected near the molecular weight (34.3 KDa), which was predicted from the amino acid sequence of the 6× histidine-fused PIP protein (FIG. 5). […]
# [9] = tested on: Rhodococcus erythropolis strain L-65; assay: Minimum growth inhibition concentration on LB agar medium, strain L-65; details: 30° C., 2 days
# Description: as §2
# [10] = tested on: Rhodococcus erythropolis wild type and mutant strain; assay: Comparison of wild type and mutant strain for sensitivity to antibiotics; details: determined similarly to the ampicillin test
# Description: The sensitivity of Rhodococcus erythropolis strain L-65 and L-88 to ampicillin was determined in the same manner as in Example 1. To explain more specifically, the bacterial cells of each strain were inoculated in LB medium and cultured with shaking at 30° C. A part of the culture solution was taken in the middle of logarithmic growth period and diluted with fresh LB medium so as to contain 1×10^5, 1×10^4, 1×10^3, 1×10^2, and […] cells in 10 μl of the LB medium. The diluted culture solutions thus prepared were dropped onto each of LB agar mediums containing lysozyme in concentrations of 15, 10, 1, and 0.1 μg/ml. After the mediums were cultured at 30° C. for 2 days and the presence or absence of bacterial cells grown on the mediums was checked. In this manner, the minimum growth inhibition concentration was determined (Table 2).
molecule,measurement,setting,value
"lysozyme: lysozyme derived from egg-white (manufactured by Sigma), cell-wall lytic enzyme","Cell lysis by lysozyme treatment (PIP band in supernatant, SDS polyacrylamide gel electrophoresis)",[1],The same phenomenon as in the case of bacterial stain L-65 is considered
same,Change of absorbence (OD600) of culture solution after addition of lysozyme,[2],a sharp decrease in absorbence was observed
same,"Cell lysis by lysozyme treatment (PIP band in supernatant, SDS polyacrylamide gel electrophoresis)","[3]; strain JCM 3201, nondenaturation buffer, no ampicillin",cell lysis rarely takes place
same,"Cell lysis by lysozyme treatment (PIP band in supernatant, SDS polyacrylamide gel electrophoresis)",[3]; strain JCM 3201 treated with ampicillin 600 μg/ml for 2 hours before cell collection,cell lysis takes place even in nondenaturation conditions
same,Minimum growth-inhibiting lysozyme concentration,[4],>400 µg/mL
same,Minimum growth-inhibiting lysozyme concentration,[5],12.5 µg/mL
same,Change of absorbence (OD600) of culture solution after addition of lysozyme,[6],the same tendency of growth was observed
same,Change of absorbence (OD600) of culture solution after addition of lysozyme,[7],a sharp decrease in absorbence was observed
same,"Cell lysis by lysozyme treatment (PIP band in supernatant, SDS polyacrylamide gel electrophoresis)",[8],Cells were lysed completely
"CC1(C)S[C@@H]2[C@H](NC(=O)[C@H](N)c3ccccc3)C(=O)N2[C@H]1C(=O)O [ampicillin, reference compound]",Minimum growth-inhibiting ampicillin concentration,[9],1 µg/mL
same,Minimum growth-inhibiting ampicillin concentration,[4],15 µg/mL
same,Minimum growth-inhibiting ampicillin concentration,[5],1 µg/mL
O=C(N[C@H](CO)[C@H](O)c1ccc([N+](=O)[O-])cc1)C(Cl)Cl [chloramphenicol],Difference in sensitivity between wild type and mutant strain,[10],no significant difference was observed
thiostreptone,Difference in sensitivity between wild type and mutant strain,[10],no significant difference was observed
